In PubChem BioAssay AID248 (DTP/NCI, 2004):
“And” between values parts separate entries of the source, which are not always exact repeats. Equal values may be shown once. Inconclusive results and toxic doses are left out. Cut-off read from the data, not from the text of the source: active = T/C of 150% or more; inactive = T/C below 125%. Peptide text beside a SMILES is read from it. * marks the point of attachment. Cbz = O=C(OCc1ccccc1)*; OBn = c1ccc(CO*)cc1; Bn = c1ccc(C*)cc1

System: L1210 leukemia ip in BDF1 mice, survival T/C
Assay: NCI In Vivo Anticancer Drug Screen. Data for tumor model L1210 Leukemia (intraperitoneal) in B6D2F1 (BDF1) mice
Details: endpoint: mean survival time, higher = longer survival
Method in brief: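 Antitumor effect is assessed in tumor-bearing animals. Survival in the compound arm is compared with a vehicle-dosed control arm and expressed as their quotient.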

[1] = dose: 50.0 mg/kg/injection, schedule: Q01DX009 (ip), vehicle: Klucel (hydroxypropylcellulose) (HPC)
[2] = dose: 100.0 mg/kg/injection, schedule: Q01DX001 (ip), vehicle: saline
[3] = dose: 100.0 mg/kg/injection, schedule: Q01DX009 (ip), vehicle: Klucel (hydroxypropylcellulose) (HPC)
[4] = dose: 200.0 mg/kg/injection, schedule: Q01DX001 (ip), vehicle: saline
[5] = dose: 200.0 mg/kg/injection, schedule: Q01DX009 (ip), vehicle: Klucel (hydroxypropylcellulose) (HPC)
[6] = dose: 50.0 mg/kg/injection, schedule: Q01DX001 (ip), vehicle: carboxymethylcellulose (CMC)
[7] = dose: 100.0 mg/kg/injection, schedule: Q01DX001 (ip), vehicle: carboxymethylcellulose (CMC)
[8] = dose: 200.0 mg/kg/injection, schedule: Q01DX001 (ip), vehicle: carboxymethylcellulose (CMC)
[9] = dose: 400.0 mg/kg/injection, schedule: Q01DX001 (ip), vehicle: carboxymethylcellulose (CMC)
[10] = dose: 200.0 mg/kg/injection, schedule: Q04DX002 (ip), vehicle: Klucel (hydroxypropylcellulose) (HPC)
[11] = dose: 25.0 mg/kg/injection, schedule: Q01DX009 (ip), vehicle: saline with Tween-80
[12] = dose: 50.0 mg/kg/injection, schedule: Q01DX009 (ip), vehicle: saline with Tween-80
[13] = dose: 100.0 mg/kg/injection, schedule: Q01DX009 (ip), vehicle: saline with Tween-80
[14] = dose: 200.0 mg/kg/injection, schedule: Q01DX009 (ip), vehicle: saline with Tween-80
[15] = dose: 400.0 mg/kg/injection, schedule: Q01DX009 (ip), vehicle: saline with Tween-80

Measured: T/C

O=C1/C(=C\c2ccc([N+](=O)[O-])cc2)CS(=O)(=O)C/C1=C/c1ccc([N+](=O)[O-])cc1
inactive: [1] 97 % of control | [2] 97 % of control | [3] 93 % of control | [4] 94 % of control | [5] 92 % of control

CN(CC(=O)C(C#N)c1ccccc1)c1ccccc1 (stereo not drawn)
inactive: [6] 98 % of control | [7] 93 % of control | [8] 91 % of control | [9] 98 % of control

CC(C)(CCl)c1ccccc1
inactive: dose: 100.0 mg/kg/injection, schedule: Q04DX002 (ip), vehicle: saline with Tween-80 107 % of control | dose: 200.0 mg/kg/injection, schedule: Q04DX002 (ip), vehicle: saline with Tween-80 88 % of control | dose: 400.0 mg/kg/injection, schedule: Q04DX002 (ip), vehicle: saline with Tween-80 88 % of control

C=CCCCCCCCCC(=O)N/N=C/c1ccc(NC(C)=O)cc1
inactive: dose: 12.5 mg/kg/injection, schedule: Q01DX001 (ip), vehicle: other 90 % of control | dose: 12.5 mg/kg/injection, schedule: Q01DX009 (ip), vehicle: other 95 % of control and 96 % of control | dose: 12.5 mg/kg/injection, schedule: Q04DX003 (ip), vehicle: other 96 % of control | dose: 25.0 mg/kg/injection, schedule: Q01DX001 (ip), vehicle: other 91 % of control | dose: 25.0 mg/kg/injection, schedule: Q01DX009 (ip), vehicle: other 114 % of control and 92 % of control | dose: 25.0 mg/kg/injection, schedule: Q04DX003 (ip), vehicle: other 102 % of control | dose: 50.0 mg/kg/injection, schedule: Q01DX009 (ip), vehicle: carboxymethylcellulose (CMC) 98 % of control and 100 % of control | dose: 50.0 mg/kg/injection, schedule: Q04DX003 (ip), vehicle: other 93 % of control | dose: 100.0 mg/kg/injection, schedule: Q01DX009 (ip), vehicle: carboxymethylcellulose (CMC) 96 % of control | dose: 100.0 mg/kg/injection, schedule: Q01DX009 (ip), vehicle: other 98 % of control | dose: 100.0 mg/kg/injection, schedule: Q04DX002 (ip), vehicle: carboxymethylcellulose (CMC) 90 % of control | dose: 100.0 mg/kg/injection, schedule: Q04DX003 (ip), vehicle: other 94 % of control | dose: 200.0 mg/kg/injection, schedule: Q01DX009 (ip), vehicle: carboxymethylcellulose (CMC) 100 % of control and 92 % of control | dose: 200.0 mg/kg/injection, schedule: Q01DX009 (ip), vehicle: other 89 % of control | [10] 114 % of control | dose: 200.0 mg/kg/injection, schedule: Q04DX002 (ip), vehicle: carboxymethylcellulose (CMC) 90 % of control | dose: 200.0 mg/kg/injection, schedule: Q04DX003 (ip), vehicle: other 92 % of control | dose: 400.0 mg/kg/injection, schedule: Q04DX002 (ip), vehicle: carboxymethylcellulose (CMC) 92 % of control | dose: 400.0 mg/kg/injection, schedule: Q04DX003 (ip), vehicle: other 86 % of control

COc1ccc(OC=O)cc1OC
inactive: dose: 50.0 mg/kg/injection, schedule: Q01DX009 (ip), vehicle: saline 98 % of control | dose: 100.0 mg/kg/injection, schedule: Q01DX009 (ip), vehicle: saline 102 % of control | dose: 100.0 mg/kg/injection, schedule: Q04DX003 (ip), vehicle: acetone 97 % of control | dose: 200.0 mg/kg/injection, schedule: Q01DX009 (ip), vehicle: saline 101 % of control | dose: 200.0 mg/kg/injection, schedule: Q04DX003 (ip), vehicle: acetone 107 % of control

Cc1ccc(S(=O)(=O)N2CCCC(O)c3ccccc32)cc1 (stereo not drawn)
inactive: [7] 108 % of control | [8] 106 % of control | [9] 116 % of control

CCOC(=O)CCC(NC(=O)CCCCSc1ncnc2nc[nH]c12)C(=O)OCC (stereo not drawn)
inactive: [11] 97 % of control | dose: 25.0 mg/kg/injection, schedule: Q01DX009 (oral), vehicle: saline with Tween-80 90 % of control | [12] 101 % of control | dose: 50.0 mg/kg/injection, schedule: Q01DX009 (oral), vehicle: saline with Tween-80 86 % of control | [13] 106 % of control | dose: 100.0 mg/kg/injection, schedule: Q01DX009 (oral), vehicle: saline with Tween-80 100 % of control | [14] 111 % of control | dose: 200.0 mg/kg/injection, schedule: Q01DX009 (oral), vehicle: saline with Tween-80 88 % of control | [15] 107 % of control | dose: 400.0 mg/kg/injection, schedule: Q01DX009 (oral), vehicle: saline with Tween-80 95 % of control

Cc1cccc(C)c1-n1nnnc1N
inactive: [1] 105 % of control | [3] 119 % of control | [5] 101 % of control

CC(C)(C)OC(=O)N1CCCC1C(=O)Oc1ccc([N+](=O)[O-])cc1 (stereo not drawn)
inactive: [11] 102 % of control | [12] 88 % of control | [13] 93 % of control

CC[N+](CC)(CC)Cc1ccccc1 (tested in a mixture with another compound)
inactive: dose: 6.25 mg/kg/injection, schedule: Q01DX009 (ip), vehicle: saline 97 % of control | dose: 12.5 mg/kg/injection, schedule: Q01DX009 (ip), vehicle: saline 103 % of control | dose: 25.0 mg/kg/injection, schedule: Q01DX001 (ip), vehicle: saline 96 % of control | dose: 25.0 mg/kg/injection, schedule: Q01DX009 (ip), vehicle: saline 95 % of control and 108 % of control | dose: 25.0 mg/kg/injection, schedule: Q04DX003 (ip), vehicle: saline 111 % of control and 96 % of control | dose: 50.0 mg/kg/injection, schedule: Q01DX001 (ip), vehicle: saline 112 % of control | dose: 50.0 mg/kg/injection, schedule: Q04DX003 (ip), vehicle: saline 102 % of control and 104 % of control | [2] 98 % of control and 106 % of control | [13] 92 % of control | dose: 100.0 mg/kg/injection, schedule: Q04DX003 (ip), vehicle: saline 88 % of control | [14] 96 % of control | [15] 92 % of control

CC(C)C(NC(=O)C(CSCc1ccccc1)NC(=O)OCc1ccccc1)C(=O)OCc1ccccc1 (stereo not drawn) (Cbz-Cys(Bn)-Val-OBn; configuration not given here)
inactive: dose: 100.0 mg/kg/injection, schedule: Q04DX003 (ip), vehicle: Klucel (hydroxypropylcellulose) (HPC) 98 % of control | dose: 200.0 mg/kg/injection, schedule: Q04DX003 (ip), vehicle: Klucel (hydroxypropylcellulose) (HPC) 93 % of control | dose: 400.0 mg/kg/injection, schedule: Q04DX003 (ip), vehicle: Klucel (hydroxypropylcellulose) (HPC) 96 % of control

O=C(CN1CCCCC1)N1CCN(C(=O)CN2CCCCC2)CC1
inactive: dose: 44.0 mg/kg/injection, schedule: Q01DX001 (ip), vehicle: carboxymethylcellulose (CMC) 98 % of control and 100 % of control | [6] 103 % of control | dose: 67.0 mg/kg/injection, schedule: Q01DX001 (ip), vehicle: carboxymethylcellulose (CMC) 87 % of control and 91 % of control | [7] 96 % of control | dose: 150.0 mg/kg/injection, schedule: Q01DX001 (ip), vehicle: carboxymethylcellulose (CMC) 91 % of control | [8] 113 % of control | [9] 103 % of control

N=C1c2ccccc2-c2nc3ccccc3c(=Nc3ccccc3C(=O)O)n21
inactive: dose: 100.0 mg/kg/injection, schedule: Q04DX002 (ip), vehicle: saline 89 % of control | dose: 200.0 mg/kg/injection, schedule: Q04DX002 (ip), vehicle: saline 86 % of control | dose: 400.0 mg/kg/injection, schedule: Q04DX002 (ip), vehicle: saline 89 % of control

Cc1ccc2[nH]c(CC#N)cc2c1
inactive: dose: 100.0 mg/kg/injection, schedule: Q04DX002 (ip), vehicle: Klucel (hydroxypropylcellulose) (HPC) 104 % of control | [10] 93 % of control | dose: 400.0 mg/kg/injection, schedule: Q04DX002 (ip), vehicle: Klucel (hydroxypropylcellulose) (HPC) 100 % of control

O=C(O)c1ccc(CBr)c(CBr)c1
inactive: dose: 6.25 mg/kg/injection, schedule: Q04DX003 (ip), vehicle: saline with Tween-80 93 % of control | dose: 12.5 mg/kg/injection, schedule: Q04DX003 (ip), vehicle: saline with Tween-80 94 % of control

CCS(=O)(=O)C1CCC1OC(C)(C)C (stereo not drawn)
inactive: [2] 108 % of control | [4] 108 % of control | dose: 400.0 mg/kg/injection, schedule: Q01DX001 (ip), vehicle: saline 102 % of control
